Consider 32 compounds from patent US6911443B2 (Bayer Aktiengesellschaft, priority 2000, dated 2005).

Molecules are shown by their SMILES. A value given as a limit tells only on which side of the number the result lay.

The target in the first assay is T1, human Syk (GST-Syk) (Homo sapiens, UniProt P43405).
T1 construct: A cDNA fragment encoding human Syk openreading frame was cloned; made in house; host or cells: Sf21 insect cells (baculovirus, transfer vector pAcG2T)
Description: Syk tyrosine kinase inhibitory assay. It counts as biochemical. The following applies: Table 11; read-out: Activity grade. The source says:
[Syk Tyrosine Kinase Inhibitory Assay]
(1) Preparation of Syk Protein
A cDNA fragment encoding human Syk openreading frame was cloned from total RNA of human Burkitt's lymphoma B cell lines, Raji (American Type Culture Collection), with the use of RT-PCR method. The cDNA fragment was inserted into pAcG2T (Pharmingen, San Diego, Calif.) to construct a baculovirus transfer vector. Then the vector, together with the linearized baculovirus (BaculoGold™, Pharmingen), was used to transfect Sf21 cells (Invitrogen, San Diego, Calif.).
Generated recombinant baculovirus was cloned and amplified in Sf21 cells. Sf21 cells were infected with this amplified high titer virus to produce a chimeric protein of Syk kinase fused by glutathione-S-transferase (GST).
The resulting GST-Syk was purified with the use of glutathione column (Amersham Pharmacia Biotech AB, Uppsala, Sweden) according to the manufacturer's instruction.
(2) Synthesize of a Peptide
Next, a peptide fragment of 30 residues including two tyrosine residues, […], was synthesized by a peptide synthesizer. The N-terminal of the fragment was then biotinylated to obtain biotinylated activation loop peptide (AL).
(3) The Measurement of Syk Tyrosine Kinase Activity
All reagents were diluted with the Syk kinase assay buffer (50 mM Tris-HCl (pH 8.0), 10 mM MgCl2, 0.1 mM Na3VO4, 0.1% BSA, 1 mM DTT). First, a mixture (35 μl) including […] of GST-Syk and 0.5 μg of AL was put in each well in 96-well plates. Then 5 μl of a test compound in the presence of 2.5% dimethylsulfoxide (DMSO) was added to each well. To this mixture was added […] (10 μl) to initiate the kinase reaction. The final reaction mixture (50 μl) consists of 0.65 nM GST-Syk, 3 μM AL, 30 μM ATP, a test compound, 0.25% DMSO, and a Syk kinase assay buffer.
The mixture was incubated for 1 hr at room temperature, and the reaction was terminated by the addition of 120 μl of termination buffer (50 mM Tris-HCl (pH 8.0), 10 mMEDTA, 500 mM NaCl, 0.1% BSA). The mixture was transferred to streptavidin-coated plates and incubated for 30 min at room temperature to combine biotin-AL to the plates. After washing the plates with Tris-buffered saline (TBS) (50 mM Tris-HCl (pH 8.0), 138 mM NaCl, 2.7 mM KCl) containing 0.05% Tween-20 for 3 times, 100 μl of antibody solution consisting of 50 mM Tris-HCl (pH 8.0), 138 mM NaCl, 2.7 mM KCl, 1% BSA, 60 ng/ml anti-phosphotyrosine monoclonal antibody, 4G10 (Upstate Biotechnology), which is labeled with europium by Amersham Pharmacia's kit in advance, was added and incubated at room temperature for 60 min. After washing, 100 μl of enhancement solution (Amersham pharmacia Biotech) was added and then time-resolved fluorescence was measured by multi-label counter ARVO (Wallac Oy, Finland) at 340 nm for excitation and 615 nm for emission with 400 msec of delay and 400 msec of window.
For the compound `COc1cc(-c2cc3nccn3c(Nc3ccc(C)cc3)n2)ccc1N1CCOCC1` [Example 12-47], the IC50 was less than 500 nM.

`c1ccc(Nc2nc(-c3ccc4c(c3)OCCO4)cc3nccn23)cc1` [Example 12-21]: the IC50 lay within 500 to 2000 nM.

`COc1ccc(-c2cc3nccn3c(Nc3cccnc3)n2)cc1OC` [Example 12-7]: the IC50 is less than 500 nM.

The same assay, now with this note: Table 13; read-out: Activity grade.
For the compound `COc1ccc(-c2cc3ncnn3c(Oc3ccc(CCC(=O)O)cc3)n2)cc1OC` [Example 14-12], the IC50 is 500 to 2000 nM.

As to `CCCSc1nc(-c2ccc(OC)c(OC)c2)cc2nccn12` [Example 14-17], the IC50 is less than 500 nM.

Turning to `COc1ccc(-c2cc3nccn3c(SCc3ccc(F)cc3)n2)cc1OC` [Example 14-30], the IC50 is 500 to 2000 nM.

In the case of `c1ccc(Sc2nc(-c3ccccc3)cc3ncnn23)cc1` [Example 14-7], the IC50 was in the range of 2000 to 10000 nM.

The assay is the same for the next values; noted with them: Table 16; read-out: Activity grade.
As to `CCSc1nc(-c2ccc(OC)c(NCCCN(C)C)c2)cc2nccn12` [Example 17-6], the IC50 is less than 500 nM.

Regarding `CCSc1nc(-c2ccc(OC)c(N(C)CCCN(C)C)c2)cc2nccn12` [Example 17-5], the IC50 was in the range of 500 to 2000 nM.

`COc1ccc(Nc2nc(-c3ccc(N4CCCC4)c(OC)c3)cc3nccn23)cc1` [Example 17-16]: the IC50 was less than 500 nM.

Consider `CCSc1nc(-c2ccc(NC)c(OC)c2)cc2nccn12` [Example 17-14], for which the IC50 lay within 500 to 2000 nM.

The same assay, now with this note: Table 17; IC50 classes; read-out: Activity grade.
As to `COc1ccc(-c2cc3nccn3c(N(C(C)=O)c3ccccc3)n2)cc1OC(C)=O` [Example 10], the IC50 lay within 2000 to 10000 nM.

`COc1ccc(-c2cc3nccn3c(Nc3ccccc3-c3nnn[nH]3)n2)cc1OC` [Example 31]: the IC50 is less than 500 nM.

For `COc1ccc(-c2cc3nccn3c(Nc3ccc(C(=O)NCCCO)cc3)n2)cc1OC` [Example 7], the IC50 is less than 500 nM.

Staying with this assay, now noted: in vitro; compounds as yielded by solid phase synthesis, purity about 40 to 90%; read-out: Activity grade (IC50 class).
As to `COc1ccc(-c2cc3nccn3c(Nc3ccc(SCC(=O)O)cc3)n2)cc1OC` [Example 11-20], the IC50 was less than 500 nM.

For `COc1ccc(Nc2nc(-c3ccc(OCCN4CCOCC4)c(OC)c3)cc3nccn23)cc1` [Example 9-96], the IC50 was less than 500 nM.

In the case of `COc1ccc(-c2cc3nccn3c(N(C(C)=O)c3ccccc3)n2)cc1OC(C)=O` [Example 10], the IC50 is less than 500 nM.

Turning to `CCOCCOc1ccc(-c2cc3nccn3c(SCC)n2)cc1OCCOCC` [Example 6-2], the IC50 was in the range of 500 to 2000 nM.

Consider `COc1ccc(-c2cc3nccn3c(Sc3ccccc3CO)n2)cc1OC` [Example 13-7], for which the IC50 was less than 500 nM.

Turning to `CCSc1nc(-c2ccc3c(c2)OCCO3)cc2nccn12` [Example 1-13], the IC50 lay in the range of 500 to 2000 nM.

Consider `COc1ccc(-c2cc3nccn3c(N(C)c3ccc(F)cc3F)n2)cc1OC` [Example 11-44], for which the IC50 was less than 500 nM.

Regarding `CCSc1nc(-c2ccc(C)c(S(=O)(=O)NCCO)c2)cc2nccn12` [Example 2-5], the IC50 was less than 500 nM.

As for `COc1ccc(Nc2nc(-c3ccc(OC)c(OC)c3)cc3nccn23)c(C(=O)O)c1` [Example 11-75], the IC50 was less than 500 nM.

Take `COc1ccc(-c2cc3nccn3c(Nc3cccc(Br)c3)n2)cc1OC` [Example 11-52]: the IC50 is less than 500 nM.

With `CCOC(=O)CCSc1nc(-c2ccc(OC)c(OC)c2)cc2nccn12` [Example 9-28], the IC50 was less than 500 nM.

For the compound `CCC(=O)c1ccc(Nc2nc(-c3ccc(OC)c(OC)c3)cc3nccn23)cc1` [Example 11-35], the IC50 was less than 500 nM.

As to `CCSc1nc(-c2ccc(OS(C)(=O)=O)c(OC)c2)cc2nccn12` [Example 3-10], the IC50 lay in the range of 500 to 2000 nM.

Take `COc1ccc(-c2cc3nccn3c(Nc3ccccc3Cl)n2)cc1OC` [Example 11-55]: the IC50 was less than 500 nM.

For the compound `COc1ccc(-c2cc3nccn3c(SC3C=CCCC3)n2)cc1OC` (stereo not drawn) [Example 9-6], the IC50 is less than 500 nM.

For the compound `COc1ccc(-c2cc3nccn3c(Sc3cccc(C(=O)O)c3)n2)cc1OC` [Example 9-93], the IC50 fell in the range of 500 to 2000 nM.

With `COc1ccc(Nc2nc(-c3ccc(OC)c(OC)c3)cc3nccn23)c(C)c1` [Example 11-2], the IC50 is less than 500 nM.

For the compound `COc1ccc(-c2cc3nccn3c(Nc3ccc(N(C)C)cc3)n2)cc1OC` [Example 11-34], the IC50 was less than 500 nM.

For `COc1ccc(-c2cc3nccn3c(Nc3ccccc3C#N)n2)cc1OC` [Example 11-121], the IC50 was in the range of 500 to 2000 nM.
